How the values were obtained:
[1] = tested on: M233 melanoma cell line; assay: Anti-proliferative effect of small molecules, MTS assay; format: cell-based; settings: M233, vemurafenib resistant
Procedure: (§1) The anti-proliferative effect of small molecules in melanoma cell lines was determined with V600E BRAF inhibitor, vemurafenib (PLX-4032, 51267, Selleck) and MEK inhibitor, selumetinib (AZD-6244, S1008, Selleck). For each cell line optimal growth conditions were determined prior to the experiment. Cells were plated in a 96-well plate at 3000 cells per well (100 uL) and were grown at 37 C, 5% CO2. Small molecule mix (50 uL per well) was made for each concentration in medium. Cells were treated in triplicate 24 hours after plating. After 72 hours medium was replaced and viability was measured with the MTS assay (Promega) according to manufacturer's instructions. Cell viability inhibition is normalized against loading control (0.1% DMSO) and GraphPad Prism was used to fit the curve and calculate GI50 values.
(§2) A375 cells were obtained from the Hubrecht Institute (Utrecht, The Netherlands); SKMEL-28, A2058 and RPMI-7951 were from the ATCC; SKMEL-57 was a gift from Dr. Patricia Groenen (Radboud University Nijmegen Medical Centre, The Netherlands); for cell line characteristics of M249, M249-AR4, M233 and M376 see (Atefi et al. 2011). A375-R, with in vitro acquired resistance to vemurafenib, was established in our lab by clonal selection of cells continually exposed to 1 μM vemurafenib. A375, A375-R, SKMEL-28, A2058 and SKMEL-57 were grown in DMEM GlutaMAX™-I (Gibco®), all other cell lines in RPMI-1640 (Gibco®). Media was supplemented with 10% FBS (Sigma), and cells were maintained in a humidified 37° C. incubator (Thermo Scientific) with 5% CO2. Vemurafenib (PLX4032; Selleck Chemicals) was diluted in DMSO to a stock concentration of 10 mM.

[2] = tested on: M376 melanoma cell line; assay: as above; format: cell-based; settings: M376, in vivo acquired resistance
Procedure: as §1, §2

[3] = tested on: SKMEL-28 melanoma cell line; assay: as above; format: cell-based; settings: Homo sapiens, SK-MEL-28, SKMEL-28, vemurafenib sensitive
Procedure: as §1, §2

[4] = tested on: SKMEL-57 melanoma cell line; assay: as above; format: cell-based; settings: SKMEL-57, vemurafenib sensitive
Procedure: as §1, §2

[5] = tested on: 3′UTR of ERK1; assay: 3′UTR Luciferase assay in HeLa cells; format: cell-based; settings: 10 nM mimic, 24 hrs
Procedure: (§3) The 3′UTR sequences (Table 11) were synthesized by IDT Technologies, and cloned into psiCHECK™-2 (Promega). HeLa cells (5×10^4) were seeded in 24-well plates, and the next day transfected with 100 ng/well 3′UTR psiCHECK™-2 construct and 10 nM miR-3157 mimics, or control miRNA using Lipofectamine 2000 Transfection Reagent (Invitrogen). After 24 hrs cells were lysed using Passive Lysis Buffer and luciferase activity was measured using the Dual-Luciferase Reporter Assay System (Promega) and the Glomax-Multi Detection system (Promega) in a 96-well format according to the manufacturer's protocol. The Renilla luciferase signal was normalized to background Firefly luciferase, and changes in Renilla luciferase activity in the miR-3157 transfected cells calculated relative to the Renilla signal in control mimic transfected cells.

[6] = tested on: 3′UTR of RRM2; assay: 3′UTR Luciferase assay in HeLa cells; format: cell-based; settings: 10 nM mimic, 24 hrs
Procedure: as §3

[7] = tested on: 3′UTR of AURKB; assay: 3′UTR Luciferase assay in HeLa cells; format: cell-based; settings: 10 nM mimic, 24 hrs
Procedure: as §3

[8] = tested on: ERK1; assay: Western blotting of ERK1 protein levels; format: cell-based, human
Procedure: Transfection was performed as described in Example 4 in 6-well format. Proteins were isolated using RIPA buffer (50 mM Tris pH 8.0, 150 mM NaCL, 1% NP-40, 0.5% Sodium deoxycholate, 0.1% SDS), supplemented with Protease Inhibitor Cocktail (Sigma) and Halt™ Phosphatase Inhibitor Cocktail (Pierce/Thermo Scientific). Fifteen μg protein was loaded on a 12% Mini-PROTEAN® TGX™ Precast Gel (Bio-Rad), and proteins were transferred to Immun-Blot PVDF Membrane (Bio-Rad). Membranes were blocked in 5% milk or 5% BSA in TBS-T, and incubated O/N at 4° C. with primary antibodies against α-tubulin (1:5000), BRAF, pERK1/2, CDK4, RRM2 (all 1:1000), BCL-2 (1:500) (Santa Cruz), total-ERK1/2 (1:2000), BIRC5, AURKB (1:1000) (Cell Signaling), ERK1 (1:2000) (GeneTex). After incubation with appropriate secondary antibodies and western blot chemiluminescence substrate ECL (Pierce/Thermo Scientific), membranes were exposed to CL-XPosure Film (Pierce/Thermo Scientific).

[9] = tested on: M249 melanoma cell line; assay: Anti-proliferative effect of miRNA mimics, MTS assay; format: cell-based; settings: 5 nM mimic, 72 hours after transfection
Procedure: (§4) The anti-proliferative effect of miRNA's in melanoma cell lines was determined with mature miRNA mimics from Ambion. For each cell line optimal growth and transfection conditions were determined prior to the experiment. Cells were plated in a 96-well plate at 3000 cells per well (100 uL) and were grown at 37 C, 5% CO2. Transfection mix (20 uL per well) was made for each miRNA mimic concentration with 0.3 uL (M249, M249-R4) or 0.5 uL (A375Hu, A375Hu-R1, A2058, RPMI-7951) X-TremeGene (Roche) per well (according to manufacturer's instructions) in Optimem (Invitrogen). Cells were transfected 24 hours after plating in triplicate. Medium was replaced 48 hours after transfection with fresh medium.

[10] = tested on: RPMI-7951 melanoma cell line; assay: as above; format: cell-based; settings: 10 nM mimic, 72 hours after transfection
Procedure: as §4

[11] = tested on: A2058 melanoma cell line; assay: as above; format: cell-based; settings: 10 nM mimic, 72 hours after transfection
Procedure: as §4

[12] = tested on: M249-AR (M249-R4) melanoma cell line; assay: as above; format: cell-based; settings: 30 nM mimic, 72 hours after transfection
Procedure: as §4

Compound | GI50 [1] [nM] | GI50 [2] [nM] | GI50 [3] [nM] | GI50 [4] [nM] | luciferase activity, ERK1 3′UTR with mutated miR-3157 binding site [5] | luciferase activity, ERK1 3′UTR unmodified ([5]; relative to control mimic) | luciferase activity, RRM2 3′UTR with mutated miR-3157 binding site [6] | luciferase activity, RRM2 3′UTR unmodified ([6]; relative to control mimic) | luciferase activity, AURKB 3′UTR with mutated miR-3157 binding site [7] | luciferase activity, AURKB 3′UTR unmodified ([7]; relative to control mimic) | ERK1 protein levels ([8]; A375 cells, increasing concentrations of mimic (FIG. 12c)) | ERK1 protein levels ([8]; A2058, M249, M249-AR4 and M376, increasing concentrations of mimic (FIG. 14a)) | M249 % Viability 5 nM [9] [%] | RPMI-7951 % Viability 10 nM [10] [%] | A2058 % Viability 10 nM [11] [%] | M249-AR % Viability 30 nM [12] [%]
CCCS(=O)(=O)Nc1ccc(F)c(C(=O)c2c[nH]c3ncc(-c4ccc(Cl)cc4)cc23)c1F [Vemurafenib, N-(3-{[5-(4-chlorophenyl)-1H-pyrrolo[2,3-b]pyridin-3-yl]carbonyl}-2,4-difluorophenyl)propane-1-sulfonamide] | > 10000 | > 10000 | ~600 | ~800 | – | – | – | – | – | – | – | – | – | – | – | –
hsa-miR-3157-5p: mature miRNA mimic, SEQ ID NO 6 UUCAGCCAGGCUAGUGCAGUCU (listed as RNA, chemistry not given here) | – | – | – | – | remained unaffected | reduced luciferase activity | remained unaffected | reduced luciferase activity | remained unaffected | reduced luciferase activity | most pronounced | not very strongly affected | 42 | 26 | 43 | 53
